Test results reported in PMC9490236, “Accurate de novo design of membrane-traversing macrocycles” (Cell, 2022).
Several values for one entry are separate records, joined by “and”; a condition that tells them apart may be missing. Identical values can stand only once. Like-named read-outs stand apart in the source and are kept apart here. Where a SMILES comes first, the peptide text is derived from it. [ ]: non-standard residue; d: D form. NMeL = CN[C@@H](CC(C)C)C(=O)O; Sar = CNCC(=O)O

Test: Pharmacokinetics and oral bioavailability of D11.2 in male SD rats (IV, PO, SQ)
Assay type: in vivo
Conditions: for half-life: read-out: T1/2z (converted); for MRT inf: in vivo
Procedure: In vivo bioavailability assays were conducted in mice and rats. D8.3.p1 and D10.1 were studied in female Balb/C mice by van Voorhis group at University of Washington. D11.2 was evaluated in Sprague Dawley (SD) rats by Robert Griffin’s group at Takeda Pharmaceuticals. D11.3 was studied in the male swiss albino mice by the contract research organization, GVK Biosciences Pvt. Ltd., Hyderabad, India. All animals used in these studies were handled in strict accordance with practices made to minimize suffering. All animal experiments conducted at the University of Washington, USA, and Takeda Pharmaceuticals, USA were approved by the Institutional Animal Care and Use Committee. Animal studies at GVK Biosciences were reviewed and approved by the Institutional Animal Ethics Committee of GVK Biosciences.
We selected four designed macrocycles with diverse structures and in vitro rates of permeability for in vivo oral bioavailability studies in the rodent models. Due to the intensive resource requirements for such studies, these studies were conducted by three different research groups. D8.3.p1 and D10.1 were studied in female Balb/C mice by van Voorhis group at University of Washington. D11.2 was evaluated in Sprague Dawley (SD) rats by Robert Griffin’s group at Takeda Pharmaceuticals. D11.3 was studied in the male swiss albino mice by the contract research organization, GVK Biosciences Pvt. Ltd., Hyderabad, India.
We evaluated the pharmacokinetic properties for D11.2 in male SD rats (n=3). D11.2 was dissolved in 2% DMSO/0.1% Tween80 and dosed by IV, PO, and SQ routes. Plasma samples were collected at multiple time points up to 24 hours. The quantification limit was established to be 2 ng/mL for the assay conditions tested. Pharmacokinetic parameters were modeled using the Phoenix WinNonlin software package.
Dosing vehicle: DMSO (2%) + 0.1% Tween80(IV, PO, SQ)
Dose: 1 mg/kg (PO, SQ, IV) • Sampling times: 0.083, 0.25, 0.5, 1, 2, 4, 6, 8, 24 h (PO, SQ, IV)

[1] = IV 1 mg/kg, individual rats R1, R2, R3, 1 mg/kg
[2] = PO 1 mg/kg, individual rats R4, R5, R6, 1 mg/kg
[3] = SQ 1 mg/kg, individual rats R7, R8, R9
[4] = male, Sprague Dawley, rat, plasma, iv, 1 mg/kg, IV 1 mg/kg, Mean
[5] = male, Sprague Dawley, rat, plasma, iv, 1 mg/kg, IV 1 mg/kg, individual rats R1, R2, R3
[6] = male, Sprague Dawley, rat, plasma, po, 1 mg/kg, PO 1 mg/kg, Mean
[7] = male, Sprague Dawley, rat, plasma, po, 1 mg/kg, PO 1 mg/kg, individual rats R4, R5, R6
[8] = male, Sprague-Dawley, rat, plasma, subcutaneous, 1 mg/kg, SQ 1 mg/kg, Mean
[9] = male, Sprague-Dawley, rat, plasma, subcutaneous, 1 mg/kg, SQ 1 mg/kg, individual rats R7, R8, R9

## CC[C@@H](C)[C@H]1NC(=O)[C@@H]2CCCN2C(=O)[C@@H]([C@H](C)CC)NC(=O)CN(C)C(=O)[C@H](CC(C)C)NC(=O)[C@@H](Cc2ccccc2)NC(=O)[C@H](CC(C)C)N(C)C(=O)[C@H]2CCCN2C(=O)[C@@H](CC(C)C)NC(=O)[C@H](CC(C)C)NC(=O)[C@H]2CCCN2C1=O [Design D11.2, DILE DPRO LEU DLEU DPRO *LEU DPHE LEU *GLY DILE PRO] (cyclo(L[Sar][dI]P[dI][dP]L[dL][dP][NMeL][dF]))
[1]
  AUClast: 702 ng·h/mL and 858 ng·h/mL
  AUC∞: 738 ng·h/mL and 926 ng·h/mL
  C0: 669 ng/mL and 1234 ng/mL
  CL: 22.5 mL/min/kg and 18 mL/min/kg
  Cmax: 796 ng/mL and 499 ng/mL
  MRT∞: 2.34 h and 2.51 h
  T1/2z: 2.05 h and 2.74 h
  Vss: 3.17 L/kg and 2.72 L/kg
  Vz: 4.00 L/kg and 4.27 L/kg
[2]
  %F: 13.0% and 8.18%
  AUClast: 89.3 ng·h/mL and 59.1 ng·h/mL
  AUC∞: 95.9 ng·h/mL and 75.8 ng·h/mL
  Cmax: 35.2 ng/mL and 28.2 ng/mL
  MRT∞: 3.02 h and 3.86 h
  T1/2z: 2.06 h and 2.53 h
  Tmax: 0.250 h
[3]
  %F: 160% and 105%
  AUClast: 741 ng·h/mL and 841 ng·h/mL
  AUC∞: 777 ng·h/mL and 853 ng·h/mL
  Cmax: 99.4 ng/mL and 95.1 ng/mL
  MRT∞: 7.64 h and 6.14 h
  T1/2z: 5.00 h and 3.71 h
[4]
  AUC(0-inf): 780 ng·h/mL
  AUC(0-t): 734 ng·h/mL
  clearance: 21.8 mL/min/kg
  half-life: 2.29 h
male, Sprague Dawley, rat, plasma, iv, 1 mg/kg, IV 1 mg/kg, Mean, read-out: C0
  C0: 843 ng/mL
male, Sprague Dawley, rat, plasma, iv, 1 mg/kg, IV 1 mg/kg, Mean, read-out: Cmax
  Cmax: 605 ng/mL
male, Sprague Dawley, rat, plasma, iv, 1 mg/kg, IV 1 mg/kg, Mean, read-out: Tmax
  Tmax: 0.0833 h
male, Sprague Dawley, rat, plasma, iv, 1 mg/kg, IV 1 mg/kg, Mean, read-out: Vss
  Vd: 3.04 L/kg
male, Sprague Dawley, rat, plasma, iv, 1 mg/kg, IV 1 mg/kg, Mean, read-out: Vz
  Vd: 4.24 L/kg
[5]
  AUC(0-inf): 674 ng·h/mL
  AUC(0-t): 642 ng·h/mL
  clearance: 24.7 mL/min/kg
  half-life: 2.08 h
male, Sprague Dawley, rat, plasma, iv, 1 mg/kg, IV 1 mg/kg, individual rats R1, R2, R3, read-out: C0
  C0: 626 ng/mL
male, Sprague Dawley, rat, plasma, iv, 1 mg/kg, IV 1 mg/kg, individual rats R1, R2, R3, read-out: Cmax
  Cmax: 519 ng/mL
male, Sprague Dawley, rat, plasma, iv, 1 mg/kg, IV 1 mg/kg, individual rats R1, R2, R3, read-out: Tmax
  Tmax: 0.0833 h
male, Sprague Dawley, rat, plasma, iv, 1 mg/kg, IV 1 mg/kg, individual rats R1, R2, R3, read-out: Vss
  Vd: 3.23 L/kg
male, Sprague Dawley, rat, plasma, iv, 1 mg/kg, IV 1 mg/kg, individual rats R1, R2, R3, read-out: Vz
  Vd: 4.46 L/kg
[6]
  AUC(0-inf): 84.3 ng·h/mL
  AUC(0-t): 71.7 ng·h/mL
  bioavailability: 11.1%
  half-life: 2.33 h
male, Sprague Dawley, rat, plasma, po, 1 mg/kg, PO 1 mg/kg, Mean, read-out: Cmax
  Cmax: 31.6 ng/mL
male, Sprague Dawley, rat, plasma, po, 1 mg/kg, PO 1 mg/kg, Mean, read-out: Tmax
  Tmax: 0.416 h
[7]
  AUC(0-inf): 81.3 ng·h/mL
  AUC(0-t): 66.8 ng·h/mL
  bioavailability: 12.1%
  half-life: 2.42 h
male, Sprague Dawley, rat, plasma, po, 1 mg/kg, PO 1 mg/kg, individual rats R4, R5, R6, read-out: Cmax
  Cmax: 31.3 ng/mL
male, Sprague Dawley, rat, plasma, po, 1 mg/kg, PO 1 mg/kg, individual rats R4, R5, R6, read-out: Tmax
  Tmax: 0.5 h
male, Sprague Dawley, rat, plasma, sc, 1 mg/kg, SQ 1 mg/kg, Mean, read-out: Cmax
  Cmax: 109 ng/mL
male, Sprague Dawley, rat, plasma, sc, 1 mg/kg, SQ 1 mg/kg, Mean
  half-life: 4.41 h
male, Sprague Dawley, rat, plasma, sc, 1 mg/kg, SQ 1 mg/kg, Mean, read-out: Tmax
  Tmax: 4 h
male, Sprague Dawley, rat, plasma, subcutaneous, 1 mg/kg, SQ 1 mg/kg, individual rats R7, R8, R9, read-out: Cmax
  Cmax: 131 ng/mL
male, Sprague Dawley, rat, plasma, subcutaneous, 1 mg/kg, SQ 1 mg/kg, individual rats R7, R8, R9
  half-life: 4.52 h
male, Sprague Dawley, rat, plasma, subcutaneous, 1 mg/kg, SQ 1 mg/kg, individual rats R7, R8, R9, read-out: Tmax
  Tmax: 4 h
male, Sprague-Dawley, rat, plasma, sc, 1 mg/kg, SQ 1 mg/kg, individual rats R7, R8, R9
  bioavailability: 92.1%
[8]
  AUC(0-inf): 903 ng·h/mL
  AUC(0-t): 874 ng·h/mL
  bioavailability: 119%
[9]
  AUC(0-inf): 1080 ng·h/mL
  AUC(0-t): 1040 ng·h/mL
rat, 1 mg/kg, SQ 1 mg/kg, Mean
  MRT inf: 6.86 h
rat, 1 mg/kg, SQ 1 mg/kg, individual rats R7, R8, R9
  MRT inf: 6.81 h
rat, iv, 1 mg/kg, IV 1 mg/kg, Mean
  MRT inf: 2.35 h
rat, iv, 1 mg/kg, IV 1 mg/kg, individual rats R1, R2, R3
  MRT inf: 2.18 h
rat, po, 1 mg/kg, PO 1 mg/kg, Mean
  MRT inf: 3.42 h
rat, po, 1 mg/kg, PO 1 mg/kg, individual rats R4, R5, R6
  MRT inf: 3.38 h
